Values after ≈ are worked out from the molar mass of the structure shown. Active and inactive are the calls of the source. The rule behind the calls is not given here.
How the values were obtained:
[1] = Stability of the compound at pH 3 to 7.4 assessed as dehydration; assay type: physicochemical; details: buffer
[2] = Kinetic solubility of the compound at pH 7.4; assay type: physicochemical; details: buffer, read-out: Kinetic_solubility
[3] = Inhibition of full-length huntingtin Q138 mutant (unknown origin) expressed in human T-RexTM-293 cells co-expressing CRE-Luc assessed as decrease of CREB-mediated transcription after 72 hrs by luciferase reporter gene based luminescence assay; assay type: cell-based; details: HEK293, 72 h
HEK293 [4] = assay: Inhibition of full-length huntingtin Q138 mutant (unknown origin) expressed in human T-RexTM-293 cells co-expressing CRE-Luc assessed as decrease of CREB-mediated transcription after 72 hrs by luciferase reporter gene based luminescence assay relative to control; assay type: cell-based
[5] = Permeability of the compound from apical to basolateral side of MDCK cells expressing MDR1 after 120 mins; assay type: ADME, cell-based, Canis lupus familiaris; details: dog, read-out: permeability
[6] = Intrinsic clearance in human liver microsomes at 1 uM in presence of NADPH; assay type: ADME, Microsome; details: read-out: CLH
MDCK = assay: Efflux ratio of permeability […] in MDCK cells expressing MDR1 after 120 mins; assay type: ADME, cell-based, Canis lupus familiaris; details: dog, 2 h
[7] = Intrinsic clearance in mouse liver microsomes at 1 uM in presence of NADPH; assay type: ADME, Microsome; details: read-out: CLH
HEK293 [8] = assay: Inhibition of full-length huntingtin Q138 mutant (unknown origin) expressed in human T-RexTM-293 cells co-expressing CRE-Luc assessed as decrease of CREB-mediated transcription up to 50 uM after 72 hrs by luciferase reporter gene based luminescence assay; assay type: cell-based
[9] = target: Huntingtin (Rattus norvegicus) (UniProt P51111); assay: Inhibition of wild type huntingtin 171-18Q-mediated cell death in Sprague-Dawley rat striatal neurons at 1 to 30 uM by NeuN-positive cell counting assay
Huntingtin (Rattus norvegicus), sequence (P51111 whole entry): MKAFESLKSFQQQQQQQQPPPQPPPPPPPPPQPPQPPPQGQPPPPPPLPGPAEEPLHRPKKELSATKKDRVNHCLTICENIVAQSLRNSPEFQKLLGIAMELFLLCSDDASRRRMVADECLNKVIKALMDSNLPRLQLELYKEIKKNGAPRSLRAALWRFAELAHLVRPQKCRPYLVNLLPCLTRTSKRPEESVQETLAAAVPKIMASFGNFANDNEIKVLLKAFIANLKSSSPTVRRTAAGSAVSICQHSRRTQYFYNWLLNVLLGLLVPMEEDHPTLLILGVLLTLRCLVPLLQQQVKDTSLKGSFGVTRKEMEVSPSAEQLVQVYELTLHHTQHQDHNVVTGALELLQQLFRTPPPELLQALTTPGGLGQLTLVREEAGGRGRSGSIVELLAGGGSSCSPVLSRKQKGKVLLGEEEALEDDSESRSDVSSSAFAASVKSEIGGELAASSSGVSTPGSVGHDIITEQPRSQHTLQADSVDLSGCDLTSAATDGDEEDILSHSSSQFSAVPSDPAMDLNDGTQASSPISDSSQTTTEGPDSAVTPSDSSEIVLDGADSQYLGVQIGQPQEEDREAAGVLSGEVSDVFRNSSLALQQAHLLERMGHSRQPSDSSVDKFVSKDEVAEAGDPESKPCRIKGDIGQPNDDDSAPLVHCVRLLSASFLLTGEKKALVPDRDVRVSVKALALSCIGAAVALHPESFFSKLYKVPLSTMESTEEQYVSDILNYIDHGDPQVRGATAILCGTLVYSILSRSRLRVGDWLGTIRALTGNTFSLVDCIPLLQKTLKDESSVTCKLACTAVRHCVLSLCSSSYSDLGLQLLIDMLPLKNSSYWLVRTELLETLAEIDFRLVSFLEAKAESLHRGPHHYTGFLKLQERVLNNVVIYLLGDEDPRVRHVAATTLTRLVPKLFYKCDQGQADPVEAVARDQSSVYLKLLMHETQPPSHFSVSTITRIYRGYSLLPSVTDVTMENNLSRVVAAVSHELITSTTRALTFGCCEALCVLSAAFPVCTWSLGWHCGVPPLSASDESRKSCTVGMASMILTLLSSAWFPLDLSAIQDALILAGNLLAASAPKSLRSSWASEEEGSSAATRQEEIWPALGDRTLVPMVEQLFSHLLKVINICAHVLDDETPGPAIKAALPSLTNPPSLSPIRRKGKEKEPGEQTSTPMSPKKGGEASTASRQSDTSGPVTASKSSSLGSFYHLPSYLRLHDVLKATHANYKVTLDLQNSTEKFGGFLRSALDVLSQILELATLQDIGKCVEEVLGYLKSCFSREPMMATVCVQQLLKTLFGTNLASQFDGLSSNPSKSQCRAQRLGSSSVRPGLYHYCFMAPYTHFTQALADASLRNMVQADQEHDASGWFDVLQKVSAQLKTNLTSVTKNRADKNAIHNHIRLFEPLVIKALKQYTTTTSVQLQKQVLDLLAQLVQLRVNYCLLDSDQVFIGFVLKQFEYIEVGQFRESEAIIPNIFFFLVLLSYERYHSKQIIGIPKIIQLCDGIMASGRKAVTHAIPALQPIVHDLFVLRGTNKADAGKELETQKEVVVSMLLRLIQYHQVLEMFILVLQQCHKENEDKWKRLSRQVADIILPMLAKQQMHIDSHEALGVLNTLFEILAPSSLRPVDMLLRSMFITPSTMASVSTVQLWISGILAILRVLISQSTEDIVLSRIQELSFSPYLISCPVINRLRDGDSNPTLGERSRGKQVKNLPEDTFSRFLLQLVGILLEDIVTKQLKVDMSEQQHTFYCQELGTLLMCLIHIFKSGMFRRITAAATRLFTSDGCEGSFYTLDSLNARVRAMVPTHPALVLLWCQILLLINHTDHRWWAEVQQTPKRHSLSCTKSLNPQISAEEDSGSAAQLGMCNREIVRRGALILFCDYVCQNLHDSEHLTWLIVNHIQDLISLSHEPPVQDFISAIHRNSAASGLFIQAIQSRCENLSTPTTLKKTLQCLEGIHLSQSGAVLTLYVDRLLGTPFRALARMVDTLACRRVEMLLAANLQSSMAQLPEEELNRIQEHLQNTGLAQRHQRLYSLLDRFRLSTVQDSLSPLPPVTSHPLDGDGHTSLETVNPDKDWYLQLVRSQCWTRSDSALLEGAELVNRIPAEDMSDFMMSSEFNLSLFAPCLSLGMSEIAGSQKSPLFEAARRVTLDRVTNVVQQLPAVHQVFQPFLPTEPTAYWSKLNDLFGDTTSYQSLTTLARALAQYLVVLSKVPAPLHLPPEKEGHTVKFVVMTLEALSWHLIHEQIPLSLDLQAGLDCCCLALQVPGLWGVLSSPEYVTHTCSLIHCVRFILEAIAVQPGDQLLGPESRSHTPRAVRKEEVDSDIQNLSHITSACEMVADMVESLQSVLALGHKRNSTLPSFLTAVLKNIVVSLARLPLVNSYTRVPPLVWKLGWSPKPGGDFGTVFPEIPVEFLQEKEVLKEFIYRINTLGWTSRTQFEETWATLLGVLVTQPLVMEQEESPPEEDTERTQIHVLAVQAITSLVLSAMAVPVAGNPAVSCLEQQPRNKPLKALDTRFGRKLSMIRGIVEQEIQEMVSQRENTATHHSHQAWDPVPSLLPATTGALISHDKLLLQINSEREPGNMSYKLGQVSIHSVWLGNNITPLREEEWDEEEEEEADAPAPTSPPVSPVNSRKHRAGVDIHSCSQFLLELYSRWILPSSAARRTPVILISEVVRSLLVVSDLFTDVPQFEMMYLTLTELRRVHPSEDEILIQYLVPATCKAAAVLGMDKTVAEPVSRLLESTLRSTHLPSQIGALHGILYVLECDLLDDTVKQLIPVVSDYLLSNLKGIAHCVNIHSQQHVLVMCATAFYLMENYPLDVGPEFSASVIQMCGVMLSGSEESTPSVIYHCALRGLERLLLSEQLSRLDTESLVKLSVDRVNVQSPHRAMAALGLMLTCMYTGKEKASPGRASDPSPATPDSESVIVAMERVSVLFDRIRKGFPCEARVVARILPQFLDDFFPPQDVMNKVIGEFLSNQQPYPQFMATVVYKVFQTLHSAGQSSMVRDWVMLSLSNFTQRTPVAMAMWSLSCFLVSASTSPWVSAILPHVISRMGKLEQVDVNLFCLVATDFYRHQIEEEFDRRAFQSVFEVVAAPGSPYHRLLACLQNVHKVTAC

Rattus norvegicus = species: Rattus norvegicus; assay: Inhibition of huntingtin 171-82Q mutant-mediated cell death in Sprague-Dawley rat striatal neurons at 10 to 30 uM by NeuN-positive cell counting assay
[10] = Cytotoxicity in Sprague-Dawley rat striatal neurons; assay type: cell-based; details: neuron
[11] = Ratio of drug level in brain to plasma in CD1 mouse at 5 mg/kg, po and iv; assay type: ADME, organism-based; design: dose 5 mg/kg, route oral; details: read-out: BPR
Cytochrome P450 2C19 = Cytochrome P450 2C19 (Homo sapiens, UniProt P33261); assay: Inhibition of CYP2C19 (unknown origin); assay type: ADME
Cytochrome P450 2C19, sequence (P33261 whole entry): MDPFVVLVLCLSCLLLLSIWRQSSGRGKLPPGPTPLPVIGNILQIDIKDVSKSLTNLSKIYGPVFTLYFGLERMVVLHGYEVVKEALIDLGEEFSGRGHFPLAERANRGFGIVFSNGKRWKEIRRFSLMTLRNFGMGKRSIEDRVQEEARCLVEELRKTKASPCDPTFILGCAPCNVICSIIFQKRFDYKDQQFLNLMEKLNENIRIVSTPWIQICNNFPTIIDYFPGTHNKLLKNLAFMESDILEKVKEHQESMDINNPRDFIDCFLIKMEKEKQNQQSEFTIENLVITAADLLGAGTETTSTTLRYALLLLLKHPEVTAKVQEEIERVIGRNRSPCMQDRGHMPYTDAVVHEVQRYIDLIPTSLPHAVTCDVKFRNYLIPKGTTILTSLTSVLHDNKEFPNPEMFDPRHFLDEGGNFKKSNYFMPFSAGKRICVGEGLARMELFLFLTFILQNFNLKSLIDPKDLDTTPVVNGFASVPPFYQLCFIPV

Cytochrome P450 2D6 = Cytochrome P450 2D6 (Homo sapiens, UniProt P10635); assay: Inhibition of CYP2D6 (unknown origin); assay type: ADME
Cytochrome P450 2D6, sequence (P10635 whole entry): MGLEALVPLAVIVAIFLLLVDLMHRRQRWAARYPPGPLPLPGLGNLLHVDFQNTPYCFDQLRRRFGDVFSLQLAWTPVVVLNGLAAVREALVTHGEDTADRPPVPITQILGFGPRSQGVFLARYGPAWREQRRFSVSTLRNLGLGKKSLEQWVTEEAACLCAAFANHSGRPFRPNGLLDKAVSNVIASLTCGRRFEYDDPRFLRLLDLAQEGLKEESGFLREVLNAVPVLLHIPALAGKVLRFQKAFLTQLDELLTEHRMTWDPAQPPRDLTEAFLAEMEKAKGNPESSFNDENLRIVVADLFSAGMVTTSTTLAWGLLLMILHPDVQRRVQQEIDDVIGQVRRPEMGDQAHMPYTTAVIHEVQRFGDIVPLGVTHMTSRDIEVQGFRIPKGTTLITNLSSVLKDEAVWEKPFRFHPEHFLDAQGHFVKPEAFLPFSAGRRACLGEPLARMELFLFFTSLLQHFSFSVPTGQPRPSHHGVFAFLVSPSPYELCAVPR

Cytochrome P450 3A4 [12] = target: T1, Cytochrome P450 3A4 (Homo sapiens, UniProt P08684); assay: Inhibition of CYP3A4 (unknown origin) using nifedipine as substrate; assay type: ADME
T1 sequence (P08684 whole entry): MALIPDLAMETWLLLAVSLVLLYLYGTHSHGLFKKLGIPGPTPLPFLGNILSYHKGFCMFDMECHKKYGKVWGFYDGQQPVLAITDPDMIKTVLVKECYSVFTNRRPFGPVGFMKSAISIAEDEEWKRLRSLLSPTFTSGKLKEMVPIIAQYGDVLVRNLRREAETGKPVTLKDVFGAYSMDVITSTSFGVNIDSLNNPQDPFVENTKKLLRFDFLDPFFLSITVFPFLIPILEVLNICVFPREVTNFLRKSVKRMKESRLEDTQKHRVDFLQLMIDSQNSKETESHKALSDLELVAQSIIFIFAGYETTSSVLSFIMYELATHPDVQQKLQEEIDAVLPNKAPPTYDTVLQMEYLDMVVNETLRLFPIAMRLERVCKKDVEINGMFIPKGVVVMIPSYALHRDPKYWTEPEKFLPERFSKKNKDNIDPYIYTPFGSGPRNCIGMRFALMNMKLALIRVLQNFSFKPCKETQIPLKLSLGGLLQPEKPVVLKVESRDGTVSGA

PC-12 [13] = assay: Cytoprotective activity in rat PC12 cells after 72 hrs by LDH release assay; assay type: ADME, cell-based; details: pc-12, 72 h
Mus musculus [14] = assay: Toxicity in R6/2 transgenic mouse assessed as mortality at 1 to 30 mg/kg, po qd; assay type: organism-based; design: dose 1-30 mg/kg, route oral; details: in vivo
Salmonella typhimurium = assay: Genotoxicity in Salmonella typhimurium by Ames test; assay type: toxicity, organism-based; details: salmonella enterica subsp. enterica serovar typhimurium
Mus musculus [15] = assay: Antihuntington's disease activity in R6/2 transgenic mouse assessed as decrease of cerebral ventricles size at 3 to 30 mg/kg, po qd measured after 8 weeks; assay type: functional, organism-based
Cytochrome P450 1A2 = target: T2, Cytochrome P450 1A2 (Homo sapiens, UniProt P05177); assay: Inhibition of CYP1A2 (unknown origin); assay type: ADME
T2 sequence (P05177 whole entry): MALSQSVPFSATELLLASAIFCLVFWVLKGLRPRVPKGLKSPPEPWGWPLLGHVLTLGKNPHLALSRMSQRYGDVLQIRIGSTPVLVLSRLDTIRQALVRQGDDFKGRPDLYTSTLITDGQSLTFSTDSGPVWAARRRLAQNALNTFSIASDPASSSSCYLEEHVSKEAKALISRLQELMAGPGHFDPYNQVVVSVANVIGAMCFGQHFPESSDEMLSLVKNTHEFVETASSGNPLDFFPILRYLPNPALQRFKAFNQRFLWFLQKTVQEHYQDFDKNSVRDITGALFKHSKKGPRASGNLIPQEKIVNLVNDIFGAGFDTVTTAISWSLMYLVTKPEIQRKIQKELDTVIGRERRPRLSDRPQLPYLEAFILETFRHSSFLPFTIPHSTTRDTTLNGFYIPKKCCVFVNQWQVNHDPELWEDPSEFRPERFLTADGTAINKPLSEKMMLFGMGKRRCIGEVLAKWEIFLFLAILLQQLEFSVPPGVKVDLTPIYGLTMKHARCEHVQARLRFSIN

Mus musculus [16] = assay: Toxicity in R6/2 transgenic mouse assessed as motor impairment at 1 to 30 mg/kg, po qd; assay type: organism-based; design: dose 1-30 mg/kg, route oral; details: in vivo
[17] = target: Voltage-gated inwardly rectifying potassium channel KCNH2 (Homo sapiens, UniProt Q12809); assay: Inhibition of human ERG up to 100 uM
Mus musculus [18] = assay: Antihuntington's disease activity in R6/2 transgenic mouse assessed as prevention of ventricular volume enlargment at 3 to 30 mg/kg, po qd measured after 8 weeks; assay type: functional, organism-based
Mus musculus [19] = assay: Antihuntington's disease activity in R6/2 transgenic mouse assessed as decrease in body weight at 10 to 30 mg/kg, po qd; assay type: functional, organism-based
PC-12 [20] = assay: Inhibition of GFP tagged-exon-1 fragment of huntingtin 74Q mutant (unknown origin) expressed in rat PC12 cells assessed as protection against doxycycline-induced cell death after 72 hrs by LDH release assay; assay type: cell-based; details: Homo sapiens
Cytochrome P450 2C9 = Cytochrome P450 2C9 (Homo sapiens, UniProt P11712); assay: Inhibition of CYP2C9 (unknown origin); assay type: ADME
Cytochrome P450 2C9, sequence (P11712 whole entry): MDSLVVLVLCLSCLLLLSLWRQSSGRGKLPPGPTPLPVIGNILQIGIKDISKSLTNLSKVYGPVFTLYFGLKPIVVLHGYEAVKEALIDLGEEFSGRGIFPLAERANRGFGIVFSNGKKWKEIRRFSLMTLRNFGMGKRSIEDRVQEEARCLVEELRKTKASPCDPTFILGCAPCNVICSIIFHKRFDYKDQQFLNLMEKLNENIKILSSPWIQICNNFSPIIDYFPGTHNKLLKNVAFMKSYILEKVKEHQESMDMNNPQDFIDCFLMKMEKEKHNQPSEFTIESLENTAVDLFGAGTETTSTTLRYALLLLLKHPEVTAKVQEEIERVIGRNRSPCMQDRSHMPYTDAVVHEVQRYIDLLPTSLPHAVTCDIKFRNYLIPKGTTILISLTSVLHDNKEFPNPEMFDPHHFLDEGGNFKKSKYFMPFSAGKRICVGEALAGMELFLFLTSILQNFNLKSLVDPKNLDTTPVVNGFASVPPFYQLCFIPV

Mus musculus [21] = assay: Ex vivo antihuntington's disease activity in R6/2 transgenic mouse assessed as decrease of cerebral ventricles size at 3 to 30 mg/kg, po qd measured after 8 weeks by MRI analysis; assay type: functional, organism-based
Cytochrome P450 3A4 [22] = target: T1, Cytochrome P450 3A4; assay: Inhibition of CYP3A4 (unknown origin) using testosterone as substrate; assay type: ADME

Row | Compound | Stability [1] | solubility kinetic [2] | EC50 [3] | Emax (HEK293 [4]) | Papp A→B at 2 h [5] | microsomal CLint at 1 µM [6] | Ratio (MDCK) | microsomal CLint at 1 µM [7] | also measured
1 | CCNc1cn(C)nc1C(=O)N1N=C2CCCC[C@@H]2[C@@]1(O)C(F)(F)F (racemic) | Stable | 182 µM (≈ 65.4 µg/mL) | 19.9 µM | 37% |  |  |  |  | 
2 | O=C(c1ccc[nH]1)N1N=C2CCCCC[C@@H]2[C@@]1(O)C(F)(F)F (racemic) | Stable | 30 µM (≈ 9.46 µg/mL) | 14.2 µM | 6% |  |  |  |  | 
3 | O=C(c1ccc[nH]1)N1N=C2CCCC[C@@H]2[C@@]1(O)C(F)(F)F (racemic) | Stable | 72 µM (≈ 21.7 µg/mL) | 28.7 µM | 20% |  |  |  |  | 
4 | Cc1cccc(C(=O)N2N=C3CCCC[C@@H]3[C@@]2(O)C(F)(F)F)c1O (racemic) | Stable | 101 µM (≈ 34.6 µg/mL) | 5.2 µM | 32% | 31.6 ×10⁻⁶ cm/s | 352 µL/min/mg | 0.8 | > 700 µL/min/mg | 
5 | CCOC(=O)c1c[nH]nc1S(=O)(=O)N1N=C2CCCC[C@@H]2[C@@]1(O)C(F)(F)F (racemic) | Stable | 111 µM (≈ 45.6 µg/mL) | 1.8 µM | 34% |  |  |  |  | 
6 | O=C(c1cncc(Br)c1)N1N=C2CCOC[C@@H]2[C@@]1(O)C(F)(F)F (racemic) | Stable | 111 µM (≈ 43.8 µg/mL) | 22.4 µM | 24% |  |  |  |  | 
7 | CC1=NN(C(=O)c2cccc(C)c2O)C(O)(C(F)(F)F)C1C (centres undefined) |  | 5 µM (≈ 1.58 µg/mL) | > 50 µM |  |  |  |  |  | inhibition (HEK293 [8]): inactive
8 | O=C(c1ccncc1)N1N=C2CCCC[C@@H]2[C@@]1(O)C(F)(F)F (racemic) | Stable | 98 µM (≈ 30.7 µg/mL) | 9.1 µM | 42% | 36 ×10⁻⁶ cm/s | 21.4 µL/min/mg | 1.1 | 54.6 µL/min/mg | inhibition [9]: Active; inhibition (Rattus norvegicus): Active; Activity [10]: Non-toxic
9 | Nc1nc(C(=O)N2N=C3CCCC[C@@H]3[C@@]2(O)C(F)(F)F)cs1 (racemic) | Stable | 96 µM (≈ 32.1 µg/mL) | 1.8 µM | 44% | 31 ×10⁻⁶ cm/s | 13.6 µL/min/mg | 1.1 | 27.6 µL/min/mg | Kp [11]: 0.34; INH (Cytochrome P450 2C19): 24.4 µM; INH (Cytochrome P450 2D6): > 30 µM; INH (Cytochrome P450 3A4 [12]): > 30 µM; Activity (PC-12 [13]): Non-toxic; inhibition [9]: Active; Activity (Mus musculus [14]): Non-toxic; Activity (Salmonella typhimurium): Non-toxic; Activity (Mus musculus [15]): Active; INH (Cytochrome P450 1A2): > 30 µM; Activity (Mus musculus [16]): Non-toxic; inhibition (INH) [17]: Not Active; Activity (Mus musculus [18]): Active; Activity (Mus musculus [19]): Active; inhibition (Rattus norvegicus): Active; inhibition (PC-12 [20]): Active; INH (Cytochrome P450 2C9): > 30 µM; Activity (Mus musculus [21]): Active; INH (Cytochrome P450 3A4 [22]): > 30 µM; Activity [10]: Non-toxic
10 | Cn1cnc(S(=O)(=O)N2N=C3CCCC[C@@H]3[C@@]2(O)C(F)(F)F)c1 (racemic) | Stable | 156 µM (≈ 55 µg/mL) | 1.7 µM | 41% | 12.8 ×10⁻⁶ cm/s | 37.6 µL/min/mg | 0.9 | 28.3 µL/min/mg | inhibition [9]: Active; inhibition (Rattus norvegicus): Active; Activity [10]: Non-toxic
11 | O=C(c1cccnc1)N1N=C2CCOC[C@@H]2[C@@]1(O)C(F)(F)F (racemic) | Stable | 187 µM (≈ 59 µg/mL) | 6.1 µM | 40% | 29.2 ×10⁻⁶ cm/s | 15.7 µL/min/mg | 1.1 | 16.6 µL/min/mg | 
12 | Nc1nc(C(=O)N2N=C3CCCC[C@@H]3[C@@]2(O)C(F)(F)F)co1 (racemic) | Stable | 153 µM (≈ 48.7 µg/mL) | 17.1 µM | 21% | 29.1 ×10⁻⁶ cm/s | 6.1 µL/min/mg | 1.1 | 21.1 µL/min/mg | 
13 | Cc1ccc(C(=O)N2N=C3CCCC[C@@H]3[C@@]2(O)C(F)(F)F)cn1 (racemic) | Stable | 212 µM (≈ 69.4 µg/mL) | 3.7 µM | 43% | 43.4 ×10⁻⁶ cm/s | 19.2 µL/min/mg | 1.5 | 174 µL/min/mg | 
14 | Cc1nn(C)c(Cl)c1S(=O)(=O)N1N=C2CCOC[C@@H]2[C@@]1(O)C(F)(F)F (racemic) | Stable |  | 30 µM | -17% |  |  |  |  | 
15 | Cc1ccc(C(=O)N2N=C3CCCCC[C@@H]3[C@@]2(O)C(F)(F)F)cn1 (racemic) | Stable | 56 µM (≈ 19.1 µg/mL) | 10 µM | 30% |  |  |  |  | 
16 | Cn1cc(Br)c(C(=O)N2N=C3CCCC[C@@H]3[C@@]2(O)C(F)(F)F)n1 (racemic) | Stable | 114 µM (≈ 45.1 µg/mL) | 4.9 µM | 29% | 39.3 ×10⁻⁶ cm/s | 17.7 µL/min/mg | 1 | 101 µL/min/mg | inhibition [9]: Active; inhibition (Rattus norvegicus): Active; Activity [10]: Non-toxic
17 | Cn1cc(N)c(C(=O)N2N=C3CCCC[C@@H]3[C@@]2(O)C(F)(F)F)n1 (racemic) | Stable | 205 µM (≈ 67.9 µg/mL) | 6.6 µM | 30% | 17.2 ×10⁻⁶ cm/s | < 5 µL/min/mg | 1.6 | 22.9 µL/min/mg | 
18 | O=C(c1ccncc1)N1N=C2CCCCC[C@@H]2[C@@]1(O)C(F)(F)F (racemic) | Stable | 96 µM (≈ 31.4 µg/mL) | 10.8 µM | 34% | 36.2 ×10⁻⁶ cm/s | 71.9 µL/min/mg | 1 | 170 µL/min/mg | 
